Data set [1] relates to Rattus norvegicus. The data set is described as follows: Compound was tested in vivo for 5-HTP accumulation in limbic system against reserpine-pretreated rats;I= inactive at the highest dose tested (12.5). The data set is classed as functional, organism-based.
The species entered for data set [2] is Rattus norvegicus. The experiment in a line: Compound was tested for binding affinity against D2 receptor expressed in CHO-K1 cells, using [3H]U-86170 as the radioligand; I=inactive (less than 50% inhibition at 1 uM).
The subject of data set [3] is Rattus norvegicus. The data set is described as follows: The Compound was tested in vivo for DOPA accumulation in limbic system against reserpine-pretreated rats; inactive at the highest dose tested (12.5). The data set is classed as functional, organism-based.
Data set [4] relates to Rattus norvegicus. The data set is described as follows: The Compound was tested in vivo for DOPA accumulation in limbic system against reserpine-pretreated rats;I= inactive at the highest dose tested (12.5). The data set is classed as functional, organism-based.
In data set [5] the target is 5-hydroxytryptamine receptor 1D (Homo sapiens, UniProt P28221). The experiment in a line: Binding affinity against 5-hydroxytryptamine 1D receptor alpha expressed in CHO-K1 cells, using [3H]-5-HT as the radioligand. The data set is classed as cell-based.
The species named for data set [6] is Rattus norvegicus. The experiment in a line: Compound was tested for binding affinity against D3 receptor expressed in CHO-K1 cells, using [3H]spiperone as the radioligand;I= inactive (less than 50% inhibition at 1 uM).
Data set [7] has as its target T1, D(3) dopamine receptor (Rattus norvegicus, UniProt P19020). The data set is described as follows: Compound was tested for binding affinity against Dopamine receptor D3 expressed in CHO-K1 cells, using [3H]spiperone as the radioligand; I= inactive at the highest dose tested (12.5). The data set is classed as cell-based.
The target of data set [8] is T2, D(2) dopamine receptor (Rattus norvegicus, UniProt P61169). Conditions: cho-k1.
Data set [9] deals with 5-hydroxytryptamine receptor 1B (Homo sapiens, UniProt P28222). The data set is described as follows: Binding affinity against 5-hydroxytryptamine 1D receptor beta expressed in CHO-K1 cells, using [3H]5-HT as the radioligand. The data set is classed as cell-based.
Data set [10] has as its system Rattus norvegicus. The experiment in a line: Compound was tested in vivo for DOPA accumulation in corpus striatum against reserpine-pretreated rats; I=inactive at the highest dose tested (12.5). The data set is classed as functional, organism-based.
Data set [11] deals with T3, 5-hydroxytryptamine receptor 1A (Rattus norvegicus, UniProt P19327).
T3 sequence (P19327 whole entry): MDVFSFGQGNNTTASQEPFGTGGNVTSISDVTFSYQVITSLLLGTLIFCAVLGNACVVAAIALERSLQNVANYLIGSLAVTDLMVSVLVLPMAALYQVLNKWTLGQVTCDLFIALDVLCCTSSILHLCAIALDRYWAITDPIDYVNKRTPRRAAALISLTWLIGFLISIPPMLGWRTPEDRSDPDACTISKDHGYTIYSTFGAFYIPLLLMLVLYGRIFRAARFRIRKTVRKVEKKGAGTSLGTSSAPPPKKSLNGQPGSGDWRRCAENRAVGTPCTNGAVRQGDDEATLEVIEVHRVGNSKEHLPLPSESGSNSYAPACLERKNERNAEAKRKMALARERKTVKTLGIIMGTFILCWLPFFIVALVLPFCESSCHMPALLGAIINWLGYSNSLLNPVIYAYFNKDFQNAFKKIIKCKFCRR
The data set is described as follows: Binding affinity against 5-hydroxytryptamine 1A receptor from CHO-K1 cells, using [3H]8-OH-DPAT as the radioligand. The data set is classed as cell-based.

The test system of data set [12] is Rattus norvegicus. The data set is described as follows: In vivo for 5-HTP accumulation in corpus striatum against reserpine-pretreated rats. The data set is classed as functional.
Data set [13] deals with T2, D(2) dopamine receptor. The data set is described as follows: Binding affinity against Dopamine receptor D2 from CHO-K1 cells, using [3H]U-86,170 as the radioligand. The data set is classed as cell-based.
Data set [14] relates to Rattus norvegicus. The experiment in a line: In vivo for 5-HTP accumulation in hemispheres (cortex) against reserpine-pretreated rats. The data set is classed as functional.
In data set [15] the test system is Rattus norvegicus. The experiment in a line: The Compound was tested in vivo for DOPA accumulation in hemispheres (cortex) against reserpine-pretreated rats; I=inactive at the highest dose tested (50). The data set is classed as functional, organism-based.
The subject of data set [16] is Rattus norvegicus. The experiment in a line: In vivo for 5-HTP accumulation in limbic system against reserpine-pretreated rats. The data set is classed as functional.
The target in data set [17] is T1, D(3) dopamine receptor. The experiment in a line: Binding affinity against Dopamine receptor D3 from CHO-K1 cells, using [3H]spiperone as the radioligand. Conditions: read-out: Ki. The data set is classed as cell-based.
In data set [18] the test system is Rattus norvegicus. The data set is described as follows: In vivo for DOPA accumulation in corpus striatum against reserpine-pretreated rats. The data set is classed as functional.
In data set [19] the test system is Rattus norvegicus. The data set is described as follows: In vivo for DOPA accumulation in limbic system against reserpine-pretreated rats. The data set is classed as functional.
For data set [20], the system named is Rattus norvegicus. The data set is described as follows: The Compound was tested in vivo for DOPA accumulation in hemispheres (cortex) against reserpine-pretreated rats; Iinactive at the highest dose tested (12.5). The data set is classed as functional, organism-based.
For data set [21], the target named is T2, D(2) dopamine receptor. The experiment in a line: Binding affinity against Dopamine receptor D2 expressed in CHO-K1 cells, using [3H]U-86170 as the radioligand. The data set is classed as cell-based.
The target in data set [22] is T1, D(3) dopamine receptor. The experiment in a line: Binding affinity against Dopamine receptor D3 expressed in CHO-K1 cells, using [3H]spiperone as the radioligand. The data set is classed as cell-based.
For data set [23], the system named is Rattus norvegicus. The experiment in a line: The compound was tested in vivo for DOPA accumulation in hemispheres (cortex) against reserpine-pretreated rats; I= inactive at the highest dose tested (50). The data set is classed as functional, organism-based.
The target in data set [24] is T1, D(3) dopamine receptor. The experiment in a line: The compound was tested in vitro for binding affinity against cloned mammalian Dopamine receptor D3 expressed in CHO cells by, using [3H]spiperone as radioligand. The data set is classed as cell-based.
In data set [25] the test system is Rattus norvegicus. The experiment in a line: compound was tested in vivo for DOPA accumulation in corpus striatum against reserpine-pretreated rats; P=significant partial reduction only at the highest dose tested (50). The data set is classed as functional, organism-based.
In data set [26] the test system is Rattus norvegicus. The experiment in a line: compound was tested in vivo for 5-HTP accumulation in hemispheres (cortex) against reserpine-pretreated rats; I= inactive at the highest dose tested (50). The data set is classed as functional, organism-based.
Data set [27] has as its system Rattus norvegicus. The data set is described as follows: compound was tested in vivo for 5-HTP accumulation in corpus striatum against reserpine-pretreated rats, activity expressed as ED50; I= inactive at the highest dose tested (50). The data set is classed as functional, organism-based.
For data set [28], the system named is Rattus norvegicus. The experiment in a line: compound was tested in vivo for 5-HTP accumulation in limbic system against reserpine-pretreated rats; I= inactive at the highest dose tested (50). The data set is classed as functional, organism-based.
The test system of data set [29] is Rattus norvegicus. The data set is described as follows: The compound was tested in vivo for DOPA accumulation in limbic system against reserpine-pretreated rats; I= inactive at the highest dose tested (50). The data set is classed as functional, organism-based.
For data set [30], the system named is Rattus norvegicus. The experiment in a line: The Compound was tested in vivo for DOPA accumulation in hemispheres (cortex) against reserpine-pretreated rats; P=significant partial reduction only at the highest dose tested (50). The data set is classed as functional, organism-based.
Data set [31] can be described thus: tmax in hours at a po dose of 10.0(pmol/g/h). The data set is classed as ADME, organism-based. Conditions: in vivo, 10 pmol/g/h.
A short description of data set [32]: tmax in hours at a iv dose of 2.0(pmol/g/h). The data set is classed as ADME, organism-based. Conditions: in vivo.
The subject of data set [33] is Rattus norvegicus. The experiment in a line: Bioavailability in male Sprague-Dawley rats, after the iv administration at a dose of 2.0(pmol/g/h). The conditions noted are these: in vivo. The data set is classed as ADME, organism-based.
For data set [34], the system named is Rattus norvegicus. The data set is described as follows: Bioavailability in male Sprague-Dawley rats, after the po administration at a dose of 10.0(pmol/g/h). The data set is classed as ADME, organism-based. The conditions noted are these: in vivo.
Data set [35] in a line: Bioavailability in rat plasma following iv/po dose. The data set is classed as ADME, organism-based.
Data set [36] can be described thus: Ratio of the 5-HTP accumulation decrease in limbic regions after oral and subcutaneous administration in rat. The data set is classed as functional, Limbic system.

Activity calls are given as the source filed them. The calls are words filed in the database; no cut-off is given here.

These results are taken from ChEMBL document CHEMBL1128401, “Structure-activity relationships in the 8-amino-6,7,8,9-tetrahydro-3H-benz[e]indole ring system. 1. Effects of substituents in the aromatic system on serotonin and dopamine receptor subtypes” (J Med Chem, 1995).

Sequence of 5-hydroxytryptamine receptor 1B (P28222 whole entry): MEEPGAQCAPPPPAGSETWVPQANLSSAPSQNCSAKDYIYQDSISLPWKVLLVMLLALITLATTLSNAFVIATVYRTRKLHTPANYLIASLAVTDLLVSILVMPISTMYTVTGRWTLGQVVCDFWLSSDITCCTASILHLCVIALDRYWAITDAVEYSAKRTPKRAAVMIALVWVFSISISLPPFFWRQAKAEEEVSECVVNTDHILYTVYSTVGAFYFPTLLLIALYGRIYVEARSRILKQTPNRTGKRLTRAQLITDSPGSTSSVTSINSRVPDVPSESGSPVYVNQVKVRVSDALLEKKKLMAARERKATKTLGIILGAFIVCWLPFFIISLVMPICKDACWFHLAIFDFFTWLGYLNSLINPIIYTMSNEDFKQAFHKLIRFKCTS
Sequence of 5-hydroxytryptamine receptor 1D (P28221 whole entry): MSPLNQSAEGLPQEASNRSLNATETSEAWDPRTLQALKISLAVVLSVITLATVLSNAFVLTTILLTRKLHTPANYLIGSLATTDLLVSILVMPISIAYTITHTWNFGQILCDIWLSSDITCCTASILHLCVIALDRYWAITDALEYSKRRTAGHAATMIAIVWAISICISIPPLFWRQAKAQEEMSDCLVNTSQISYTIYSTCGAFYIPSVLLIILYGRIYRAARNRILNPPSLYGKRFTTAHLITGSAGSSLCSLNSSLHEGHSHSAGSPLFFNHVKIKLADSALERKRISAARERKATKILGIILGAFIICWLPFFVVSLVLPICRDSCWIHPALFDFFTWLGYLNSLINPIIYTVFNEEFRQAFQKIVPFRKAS
T1 sequence (P19020 whole entry): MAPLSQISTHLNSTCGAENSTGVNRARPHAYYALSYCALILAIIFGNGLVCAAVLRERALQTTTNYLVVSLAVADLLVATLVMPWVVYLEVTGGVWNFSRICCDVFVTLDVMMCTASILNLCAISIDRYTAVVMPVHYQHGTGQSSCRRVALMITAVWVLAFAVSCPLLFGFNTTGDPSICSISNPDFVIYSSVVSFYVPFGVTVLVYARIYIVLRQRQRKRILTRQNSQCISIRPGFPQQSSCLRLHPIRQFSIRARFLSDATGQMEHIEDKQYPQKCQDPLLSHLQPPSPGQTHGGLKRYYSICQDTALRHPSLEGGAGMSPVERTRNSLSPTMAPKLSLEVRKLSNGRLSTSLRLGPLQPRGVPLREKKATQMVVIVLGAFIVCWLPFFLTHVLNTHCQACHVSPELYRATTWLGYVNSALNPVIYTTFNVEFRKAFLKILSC
T2 sequence (P61169 whole entry): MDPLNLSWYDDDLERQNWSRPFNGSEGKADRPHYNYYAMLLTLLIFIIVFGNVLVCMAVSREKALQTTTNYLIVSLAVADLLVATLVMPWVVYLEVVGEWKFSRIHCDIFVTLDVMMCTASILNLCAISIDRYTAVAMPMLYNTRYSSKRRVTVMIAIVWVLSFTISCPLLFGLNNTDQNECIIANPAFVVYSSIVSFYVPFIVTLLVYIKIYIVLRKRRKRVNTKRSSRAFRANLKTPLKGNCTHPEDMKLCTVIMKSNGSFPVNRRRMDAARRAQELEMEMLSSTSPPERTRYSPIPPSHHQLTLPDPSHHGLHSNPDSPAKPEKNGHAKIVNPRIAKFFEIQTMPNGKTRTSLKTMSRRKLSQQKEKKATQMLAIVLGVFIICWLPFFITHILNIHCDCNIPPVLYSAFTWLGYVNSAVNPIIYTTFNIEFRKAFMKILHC

With `CCCN(CCC)C1CCc2ccc3[nH]cc(CN(C)C)c3c2C1` (stereo not given), the ED50 result with Rattus norvegicus [1], in the data set on Rattus norvegicus [3], in the data set on Rattus norvegicus [4] and in the data set on Rattus norvegicus [10] was “inactive” each time. In addition, the Ki entry in the data set listed under Rattus norvegicus [2] and in the data set listed under Rattus norvegicus [6] was “inactive” throughout. Also, the Ki entry in data set [5] (cho-k1) is “Not Active”; at D(3) dopamine receptor [7], “Not Active”; on D(2) dopamine receptor [8], “Not Active”; in [9] (cho-k1) it was “Not Active”; in data set [11], 113 nM.

As for `CCCN(CCC)C1CCc2ccc3c(c2C1)CC(=O)N3` (stereo not given), the ED50 in the data set on Rattus norvegicus [12] came out at 0.41 µmol/kg; with Rattus norvegicus [14] it was 0.86 µmol/kg; in the data set on Rattus norvegicus [16], 0.45 µmol/kg; with Rattus norvegicus [18], 0.25 µmol/kg; in the data set on Rattus norvegicus [19], 0.17 µmol/kg. Further, the Ki worked out at 11 nM on D(2) dopamine receptor [13]; 26 nM in [5] (read-out: Ki); 23 nM on D(3) dopamine receptor [17]; 194 nM in data set [9] (read-out: Ki); 14 nM in data set [11]. For the same compound, in the data set on Rattus norvegicus [15], the ED50 result was “inactive”.

For `CCCN(CCC)C1CCc2ccc3[nH]ccc3c2C1` (stereo not given), the ED50 worked out at 0.076 µmol/kg in the data set on Rattus norvegicus [12]; 0.17 µmol/kg in the data set with Rattus norvegicus [14]; 0.096 µmol/kg in the data set with Rattus norvegicus [16]; 0.3 µmol/kg in the data set on Rattus norvegicus [18]; 0.15 µmol/kg with Rattus norvegicus [19]. Also, the inhibition constant (Ki) turned out to be 40 nM in [5] (read-out: Ki), 15 nM on D(2) dopamine receptor [21], 349 nM in data set [9] (read-out: Ki) and 37 nM on D(3) dopamine receptor [22]. Moreover, in the data set with Rattus norvegicus [20], the ED50 entry is “inactive”.

Turning to `CCCN(CCC)C1CCc2ccc3[nH]cc(CC(F)(F)F)c3c2C1` (stereo not given), the ED50 entry in the data set on Rattus norvegicus [23], with Rattus norvegicus [26], in the data set with Rattus norvegicus [27], with Rattus norvegicus [28] and in the data set on Rattus norvegicus [29] was “inactive” each time. Also, the Ki on D(3) dopamine receptor [24] came to 134 nM; in data set [5] (read-out: Ki) it was 54 nM; on D(2) dopamine receptor [21], 86 nM; in data set [9] (read-out: Ki) it was 409 nM; in data set [11] it was 18 nM. Moreover, the median effective dose (ED50) entry in the data set with Rattus norvegicus [25] is “Weak activity”.

With `CCCN(CCC)C1CCc2ccc3[nH]cc(Cl)c3c2C1` (stereo not given), the Ki in [5] (read-out: Ki) was 23 nM; on D(2) dopamine receptor [21] it was 9.8 nM; in data set [9] (cho-k1), “Not Active”; at D(3) dopamine receptor [22], 15 nM; in data set [11], 2 nM. Besides, in the data set with Rattus norvegicus [30], the ED50 result was “Weak activity”.

On to `CN(C)[C@H]1CCc2ccc3[nH]ccc3c2C1`, for which the Tmax in data set [31] worked out at 48 h; in [32] it was 2 h. In addition, the AUC stood at 607 pM ml-1 with Rattus norvegicus [33] and 2224 pM ml-1 in the data set with Rattus norvegicus [34]. Moreover, the bioavailability in data set [35] is 72%. For the same compound, the ED50 ratio in [36] was found to be 18.

With `CCCN(CCC)[C@H]1CCc2ccc3[nH]cc(C(=O)C(N)=O)c3c2C1`, the Ki in data set [5] (read-out: Ki) was 440 nM; on D(3) dopamine receptor [7], “Not Active”; at D(2) dopamine receptor [8] it was “Not Active”; in data set [9] (read-out: Ki) it was 1100 nM; in data set [11], 49 nM.

In general, ED50 refers to the dose at which the effect has come halfway, by size or by number of responders. For orientation: Ki means a measure of affinity in units of concentration, obtained from inhibition or displacement. As usually defined, the Tmax is the time at which the peak concentration occurs. Usually bioavailability stands for the share of a dose that reaches the circulation, judged against a reference dose that is usually intravenous.
